Data taken from US12059393B2, “Compositions for topical treatment of radiation dermatitis” (Akos Biosciences, Inc, priority 2022, dated 2024).

System: acute radiation-induced dermatitis
Test: Blinded clinical dermatitis scoring in mouse radiation dermatitis model
Assay type: in vivo, Balb/c mice
Set-up: key to Dermatitis score (mean): dermatitis scale 0 to 5, 1.0-unit increments
Details: for Dermatitis score % Change Group 4 vs. Group 3: 30 mg/mL CBD vs olive oil only; for Dermatitis score % Change Group 4 vs. Group 2: 30 mg/mL CBD vs radiation only; for Dermatitis score (mean): Group 4 (30 mg/mL CBD)
Procedure: A study was performed on mice to determine the efficacy of topically-dosed CBD in an olive oil vehicle for the treatment of acute radiation-induced dermatitis. Three different CBD dosages were used— 30 mg/mL (3 wt %), 120 mg/mL (12 wt %), and 250 mg/mL (25 wt %).
144 female Balb/c mice with an average starting body weight (±SEM) of 17.96±0.12 grams were randomized into six (6) groups of 24 animals each, as follows:
The control group (Group 1) was not irradiated. The animals in Groups 2-6 were anesthetized via a single intraperitoneal injection of xylazine and ketamine prior to being administered a single dose of 30 Grays (Gy) of radiation directed at a 2 cm×4 cm patch of shaved dorsal skin on Day 0. Radiation was generated by a 160 kVp (15-ma) X-ray source at a focal distance of 10 cm, hardened with a 0.35 mm Cu filtration system at a rate of approximately 3.2 Gy/minute.
Dosing for animals in Groups 3-6 began on Day 0 immediately after radiation. Treatments were administered topically (0.1 mL per animal) daily from Days 0-28.
Starting on Day 8 and continuing every other day thereafter (Days 8-28), each animal was evaluated for skin redness and dermatitis, and photographed for subsequent blinded scoring of dermatitis at the completion of the study. Body weight was taken daily.
Dermatitis was measured by blinded scoring of photographs at the end of the study. Two independent observers graded the photographs, and results were reported on a scale of 0 to 5 in 1.0 unit increments. The scale is described in the table below:
Data were evaluated using one-way ANOVA with Dunnett's multiple comparisons test to compare all groups to the vehicle control group using GraphPad Prism 8.4.3 (La Jolla, CA Duration of dermatitis data was evaluated using the Chi-square test to compare all groups to the vehicle-control group and radiation only group using SigmaPlot 11.0 (Systat Software, Inc.). Statistical significance was achieved when p<0.05.
The following table provides information on the duration of moderate dermatitis, which is defined as the number of days on which scores were at least 2
Bold values indicate a decrease (improvement), and underlined values indicate an increase (worsening).

[1] = 30 mg/mL CBD, 148 total animal days
[2] = 120 mg/mL CBD, 148 total animal days
[3] = 150 mg/mL CBD, 147 total animal days

## C=C(C)[C@@H]1CCC(C)=C[C@H]1c1c(O)cc(CCCCC)cc1O [CBD, 2-[(1R,6R)-6-Isopropenyl-3-methylcyclohex-2-en-1-yl]-5-pentylbenzene-1,3-diol]
30 mg/mL CBD
  % Days ≥2: 50.68%
30 mg/mL CBD (Group 4)
  Mean dermatitis scores compared against Group 2 (radiation only) and Group 3 (olive oil only): consistently decreased mean dermatitis scores
  Percentage of days with moderate dermatitis compared to the Olive oil only group (Group 3): significantly lower
30 mg/mL CBD (Group 4), majority of surveyed days, vs olive oil only group
  Percentages of animals with moderate or severe dermatitis: reduced percentages of animals with moderate or severe dermatitis
Day 8
  Dermatitis score % Change Group 4 vs. Group 3: −22.22%
  Dermatitis score % Change Group 4 vs. Group 2: 101.92%
  Dermatitis score (mean): 0.88
Day 10
  Dermatitis score % Change Group 4 vs. Group 3: −18.75%
  Dermatitis score % Change Group 4 vs. Group 2: 10.80%
  Dermatitis score (mean): 1.63
Day 12
  Dermatitis score % Change Group 4 vs. Group 3: −21.62%
  Dermatitis score % Change Group 4 vs. Group 2: −15.04%
  Dermatitis score (mean): 1.81
Day 14
  Dermatitis score % Change Group 4 vs. Group 3: −20.00%
  Dermatitis score % Change Group 4 vs. Group 2: −8.78%
  Dermatitis score (mean): 2.25
Day 16
  Dermatitis score % Change Group 4 vs. Group 3: −23.33%
  Dermatitis score % Change Group 4 vs. Group 2: −29.72%
  Dermatitis score (mean): 1.92
Day 18
  Dermatitis score % Change Group 4 vs. Group 3: −34.62%
  Dermatitis score % Change Group 4 vs. Group 2: −35.07%
  Dermatitis score (mean): 1.42
Day 20
  Dermatitis score % Change Group 4 vs. Group 3: −38.10%
  Dermatitis score % Change Group 4 vs. Group 2: −43.25%
  Dermatitis score (mean): 1.08
Day 22
  Dermatitis score % Change Group 4 vs. Group 3: −17.65%
  Dermatitis score % Change Group 4 vs. Group 2: −32.46%
  Dermatitis score (mean): 1.17
Day 24
  Dermatitis score % Change Group 4 vs. Group 3: −23.53%
  Dermatitis score % Change Group 4 vs. Group 2: −40.42%
  Dermatitis score (mean): 1.08
Day 26
  Dermatitis score % Change Group 4 vs. Group 3: −29.41%
  Dermatitis score % Change Group 4 vs. Group 2: −42.11%
  Dermatitis score (mean): 1.00
Day 28
  Dermatitis score % Change Group 4 vs. Group 3: −31.25%
  Dermatitis score % Change Group 4 vs. Group 2: −46.93%
  Dermatitis score (mean): 0.92
30 mg/mL CBD, Day 8
  Percentage of Animals with Moderate Dermatitis (≥2): 18.8%
  Percentage of Animals with Moderate Dermatitis (≥3): 0%
30 mg/mL CBD, Day 10
  Percentage of Animals with Moderate Dermatitis (≥2): 75%
  Percentage of Animals with Moderate Dermatitis (≥3): 6.3%
30 mg/mL CBD, Day 12
  Percentage of Animals with Moderate Dermatitis (≥2): 81.3%
  Percentage of Animals with Moderate Dermatitis (≥3): 18.8%
30 mg/mL CBD, Day 14
  Percentage of Animals with Moderate Dermatitis (≥2): 75%
  Percentage of Animals with Moderate Dermatitis (≥3): 56.3%
30 mg/mL CBD, Day 16
  Percentage of Animals with Moderate Dermatitis (≥2): 75%
  Percentage of Animals with Moderate Dermatitis (≥3): 41.7%
30 mg/mL CBD, Day 18
  Percentage of Animals with Moderate Dermatitis (≥2): 66.7%
  Percentage of Animals with Moderate Dermatitis (≥3): 0%
30 mg/mL CBD, Day 20
  Percentage of Animals with Moderate Dermatitis (≥2): 33.3%
  Percentage of Animals with Moderate Dermatitis (≥3): 0%
30 mg/mL CBD, Day 22
  Percentage of Animals with Moderate Dermatitis (≥2): 47.7%
  Percentage of Animals with Moderate Dermatitis (≥3): 0%
30 mg/mL CBD, Day 24
  Percentage of Animals with Moderate Dermatitis (≥2): 33.3%
  Percentage of Animals with Moderate Dermatitis (≥3): 0%
30 mg/mL CBD, Day 26
  Percentage of Animals with Moderate Dermatitis (≥2): 25%
  Percentage of Animals with Moderate Dermatitis (≥3): 0%
30 mg/mL CBD, Day 28
  Percentage of Animals with Moderate Dermatitis (≥2): 16.7%
  Percentage of Animals with Moderate Dermatitis (≥3): 0%
[1]
  Days <2 (animal days): 73
  Days ≥2 (duration of moderate dermatitis, animal days): 75
120 mg/mL CBD
  % Days ≥2: 59.46%
120 mg/mL CBD, Day 8
  Percentage of Animals with Moderate Dermatitis (≥2): 18.8%
  Percentage of Animals with Moderate Dermatitis (≥3): 0%
120 mg/mL CBD, Day 10
  Percentage of Animals with Moderate Dermatitis (≥2): 87.5%
  Percentage of Animals with Moderate Dermatitis (≥3): 6.3%
120 mg/mL CBD, Day 12
  Percentage of Animals with Moderate Dermatitis (≥2): 93.8%
  Percentage of Animals with Moderate Dermatitis (≥3): 50%
120 mg/mL CBD, Day 14
  Percentage of Animals with Moderate Dermatitis (≥2): 100%
  Percentage of Animals with Moderate Dermatitis (≥3): 75%
120 mg/mL CBD, Day 16
  Percentage of Animals with Moderate Dermatitis (≥2): 83.3%
  Percentage of Animals with Moderate Dermatitis (≥3): 25%
120 mg/mL CBD, Day 18
  Percentage of Animals with Moderate Dermatitis (≥2): 83.3%
  Percentage of Animals with Moderate Dermatitis (≥3): 8.3%
120 mg/mL CBD, Day 20
  Percentage of Animals with Moderate Dermatitis (≥2): 58.3%
  Percentage of Animals with Moderate Dermatitis (≥3): 0%
120 mg/mL CBD, Day 22
  Percentage of Animals with Moderate Dermatitis (≥2): 33.3%
  Percentage of Animals with Moderate Dermatitis (≥3): 0%
120 mg/mL CBD, Day 24
  Percentage of Animals with Moderate Dermatitis (≥2): 33.3%
  Percentage of Animals with Moderate Dermatitis (≥3): 0%
120 mg/mL CBD, Day 26
  Percentage of Animals with Moderate Dermatitis (≥2): 33.3%
  Percentage of Animals with Moderate Dermatitis (≥3): 0%
120 mg/mL CBD, Day 28
  Percentage of Animals with Moderate Dermatitis (≥2): 8.3%
  Percentage of Animals with Moderate Dermatitis (≥3): 0%
[2]
  Days <2 (animal days): 60
  Days ≥2 (duration of moderate dermatitis, animal days): 88
[3]
  Days <2 (animal days): 57
  Days ≥2 (duration of moderate dermatitis, animal days): 90
250 mg/mL CBD, Day 8
  Percentage of Animals with Moderate Dermatitis (≥2): 12.5%
  Percentage of Animals with Moderate Dermatitis (≥3): 6.3%
250 mg/mL CBD, Day 10
  Percentage of Animals with Moderate Dermatitis (≥2): 75%
  Percentage of Animals with Moderate Dermatitis (≥3): 12.5%
250 mg/mL CBD, Day 12
  Percentage of Animals with Moderate Dermatitis (≥2): 100%
  Percentage of Animals with Moderate Dermatitis (≥3): 62.5%
250 mg/mL CBD, Day 14
  Percentage of Animals with Moderate Dermatitis (≥2): 93.8%
  Percentage of Animals with Moderate Dermatitis (≥3): 93.3%
250 mg/mL CBD, Day 16
  Percentage of Animals with Moderate Dermatitis (≥2): 93.7%
  Percentage of Animals with Moderate Dermatitis (≥3): 75%
250 mg/mL CBD, Day 18
  Percentage of Animals with Moderate Dermatitis (≥2): 83.3%
  Percentage of Animals with Moderate Dermatitis (≥3): 58.3%
250 mg/mL CBD, Day 20
  Percentage of Animals with Moderate Dermatitis (≥2): 66.7%
  Percentage of Animals with Moderate Dermatitis (≥3): 25%
250 mg/mL CBD, Day 22
  Percentage of Animals with Moderate Dermatitis (≥2): 33.3%
  Percentage of Animals with Moderate Dermatitis (≥3): 0%
250 mg/mL CBD, Day 24
  Percentage of Animals with Moderate Dermatitis (≥2): 50%
  Percentage of Animals with Moderate Dermatitis (≥3): 0%
250 mg/mL CBD, Day 26
  Percentage of Animals with Moderate Dermatitis (≥2): 50%
  Percentage of Animals with Moderate Dermatitis (≥3): 0%
250 mg/mL CBD, Day 28
  Percentage of Animals with Moderate Dermatitis (≥2): 0%
  Percentage of Animals with Moderate Dermatitis (≥3): 0%
All CBD-treated groups (Groups 4, 5, 6)
  Percentage of days with moderate dermatitis compared to the irradiated group (Group 2): significantly lower
